Experiment [1] concerns Gram-positive and Gram-negative organisms. Conditions: disclosed in earlier patents; cited from earlier work.
Experiment [2] relates to M.suipneumoniae J2206/183b. Put plainly: Anti-mycoplasmal MIC by serial dilution in Friis broth (Table 3). Conditions: Mesomycoplasma hyopneumoniae, read-out: in vitro MIC. Format: cell-based. An excerpt: (§1) *Determined by serial dilution in Friis broth (Friis N.F. 1975. Nord. Vet
(§2) Med. 27, 337) in microtiter plates using a modification of the metabolite
(§3) inhibition test (TaylorRobinson D. 1967. Postgrad. Med. J., 43, suppl.

For another experiment, the system named is M.dispar NCTC 10125. Described as above. Format: cell-based. To be noted: read-out: in vitro MIC.
From the text: as §1, §2, §3

For another experiment, the system named is M.pneumoniae 427a. The description is as above. Format: cell-based. To be noted: Mycoplasmoides pneumoniae, read-out: in vitro MIC.
From the text: as §1, §2, §3

For experiment [3], the system named is Staph.aureus Oxford. Put plainly: MIC by serial dilution in nutrient agar (human bacteria, Table 1). It counts as cell-based. To be noted: Staphylococcus aureus; Staph.aureus Oxford; nutrient agar, 5% "chocolated" horse blood; read-out: MIC.
Another experiment deals with Strep.pyogenes A 64/848. Described as above. It counts as cell-based. Conditions: Streptococcus pyogenes, A64/848, 5% "chocolated" horse blood.
The subject of another experiment is K. aerogenes A. Described as above. Format: cell-based. To be noted: Klebsiella aerogenes, 5% "chocolated" horse blood.
A further experiment has as its system Strep.pneumoniae CN33. The experiment is described as above. It counts as cell-based. To be noted: Streptococcus pneumoniae, 5% "chocolated" horse blood.
Experiment [4] has as its system E.coli NCTC 10418. Described as above. To be noted: Escherichia coli, NCTC10418, 5% "chocolated" horse blood. Format: cell-based.
The next experiment has as its system Strep.faecalis I. Described as above. Format: cell-based. To be noted: Enterococcus faecalis, 5% "chocolated" horse blood.
The test system of experiment [5] is Haemophilus influenzae Wy21. The description is as above. It counts as cell-based. Conditions: 5% "chocolated" horse blood.
Experiment [6] has as its system Haemophilus influenzae Q1. Described as above. Format: cell-based. To be noted: Haemophilus influenzae, Q1.
Another experiment relates to Sarcina lutea 8340. The experiment is described as above. Format: cell-based. Conditions: Micrococcus luteus, 5% "chocolated" horse blood.
Experiment [7] has as its system Erysipelothrix rhusiopathiae NCTC 8163. Put plainly: MIC by agar dilution (veterinary bacteria, Table 2). To be noted: NCTC8163, diagnostic sensitivity test agar, 24 hours, 37° C. It counts as cell-based. The procedure:
(§4) The MIC values were determined by agar dilution using diagnostic sensitivity test agar (Oxoid) using a multipoint inoculator delivering 0.001 ml of an inoculum adjusted to give 10^7 -10^8 organisms per ml and read after 24 hours incubation at 37° C.
(In general: In agar dilution, organisms are placed on agar that contains the substance at set levels.)

The next experiment concerns B. subtilis ATCC 6633. The experiment is described as above. It counts as cell-based. Conditions: Bacillus subtilis, ATCC6633, diagnostic sensitivity test agar, 24 hours, 37° C. The protocol:
as §4

The subject of a further experiment is Strep.dysgalactiae SPD1. Described as above. It counts as cell-based. Conditions: Streptococcus dysgalactiae, diagnostic sensitivity test agar, 24 hours, 37° C. The procedure:
as §4

The test system of a further experiment is Strep.agalactiae SPA1. The experiment is described as above. It counts as cell-based. Conditions: Streptococcus agalactiae, diagnostic sensitivity test agar, 24 hours, 37° C. The protocol: as §4
The subject of experiment [8] is Staph.aureus Oxford. The experiment is described as above. Format: cell-based. Conditions: Staphylococcus aureus, diagnostic sensitivity test agar, 24 hours, 37° C. The protocol:
as §4

The next experiment relates to Past.multocida PA1. The experiment is described as above. Format: cell-based. Conditions: Pasteurella multocida, diagnostic sensitivity test agar, 24 hours, 37° C. The procedure:
as §4

Experiment [9] relates to Staph.aureus B4 (pen resis). Described as above. Format: cell-based. To be noted: Staphylococcus aureus, diagnostic sensitivity test agar, 24 hours, 37° C. The protocol: as §4
The test system of another experiment is E.coli E1. The experiment is described as above. To be noted: Escherichia coli, diagnostic sensitivity test agar, 24 hours, 37° C. Format: cell-based. The procedure: as §4
Experiment [10] concerns E.coli NCTC 10418. The description is as above. Format: cell-based. Conditions: Escherichia coli, NCTC10418, diagnostic sensitivity test agar, 24 hours, 37° C. The procedure: as §4
The next experiment deals with Past.multocida PA2. The experiment is described as above. Format: cell-based. Conditions: Pasteurella multocida, diagnostic sensitivity test agar, 24 hours, 37° C. The procedure: as §4
For experiment [11], the system named is Corynebacterium pyogenes CY1. The experiment is described as above. Format: cell-based. Conditions: Trueperella pyogenes, diagnostic sensitivity test agar, 24 hours, 37° C. The procedure: as §4
Experiment [12] concerns Staph.aureus 152 (pen sens). Described as above. It counts as cell-based. Conditions: Staphylococcus aureus, diagnostic sensitivity test agar, 24 hours, 37° C. The procedure:
as §4

In a further experiment the test system is Bord.bronchiseptica BO9. The experiment is described as above. It counts as cell-based. Conditions: Bordetella bronchiseptica, diagnostic sensitivity test agar, 24 hours, 37° C. The protocol: as §4
Another experiment deals with Past.haemolytica PA5. Described as above. Format: cell-based. To be noted: Mannheimia haemolytica, diagnostic sensitivity test agar, 24 hours, 37° C. The procedure: as §4
For the next experiment, the system named is S.dublin S7. Described as above. Conditions: Salmonella enterica, diagnostic sensitivity test agar, 24 hours, 37° C. Format: cell-based. The procedure: as §4
Experiment [13] deals with Strep.suis (group D) SPS11. The experiment is described as above. Format: cell-based. To be noted: Streptococcus suis, diagnostic sensitivity test agar, 24 hours, 37° C. The protocol:
as §4

A further experiment has as its system Strep.uberis SPU1. The description is as above. To be noted: Streptococcus uberis, diagnostic sensitivity test agar, 24 hours, 37° C. Format: cell-based. The procedure:
as §4

In a further experiment the test system is S.typhimurium S18. Described as above. It counts as cell-based. Conditions: Salmonella enterica, diagnostic sensitivity test agar, 24 hours, 37° C. The protocol: as §4
The test system of another experiment is Bord.bronchiseptica BO8. The description is as above. Format: cell-based. Conditions: Bordetella bronchiseptica, diagnostic sensitivity test agar, 24 hours, 37° C. The protocol:
as §4

For a further experiment, the system named is Ps. aeruginosa 10662. Put plainly: MIC by serial dilution in nutrient agar (human bacteria, Table 1). Format: cell-based. Conditions: Pseudomonas aeruginosa, 5% "chocolated" horse blood.
A further experiment concerns Bacillus subtilis 6633. The experiment is described as above. Format: cell-based. To be noted: 5% "chocolated" horse blood.
The subject of experiment [14] is Neisseria catarrhalis 1502. Described as above. Format: cell-based. Conditions: 5% "chocolated" horse blood.
Another experiment has as its system Strep.pyogenes B 2788. The experiment is described as above. Format: cell-based. Conditions: Streptococcus pyogenes, B2788, 5% "chocolated" horse blood.
The test system of experiment [15] is Corynebacterium xerosis 9755. The description is as above. It counts as cell-based. To be noted: 5% "chocolated" horse blood.
A further experiment deals with P. mirabilis 889. The experiment is described as above. It counts as cell-based. To be noted: Proteus mirabilis, 5% "chocolated" horse blood.
Another experiment deals with Staph.aureus Russell. The description is as above. To be noted: Staphylococcus aureus; Staph.aureus Russell; nutrient agar, 5% "chocolated" horse blood; read-out: MIC. It counts as cell-based.
The subject of the next experiment is E.coli ESS. Described as above. Format: cell-based. To be noted: Escherichia coli, 5% "chocolated" horse blood.
The subject of another experiment is Strep.pyogenes C 2761. Described as above. It counts as cell-based. To be noted: Streptococcus pyogenes, C2761, 5% "chocolated" horse blood.

Where only a bound is given, the exact number is not on record here.

With `CC(=CC(=O)OCCCCCCCCC(=O)O)CC1OCC(CC2OC2C(C)C(C)O)C(O)C1O` (centres unmarked) [Pseudomonic acid], the antibacterial activity entry in experiment [1] is “having antibacterial activity”.
For the compound `CC(=O)C(C)C1OC1CC1COC(C/C(C)=C/C(=O)OCCCCCCCCC(=O)O)C(O)C1O` (centres unmarked) [Example 4, Sodium 13--Oxopseudomonate A], the MIC in [2] is 31.2 µg/mL; with M.dispar NCTC 10125 it was 3.9 µg/mL; with M.pneumoniae 427a it was 250 µg/mL; in the experiment on Staph.aureus Oxford [3] it was 0.2 µg/mL; against Strep.pyogenes A 64/848, 1 µg/mL; in the experiment on K. aerogenes A it was over 100 µg/mL. Further, the MIC in the experiment with Strep.pneumoniae CN33 is 0.5 µg/mL; against E.coli NCTC 10418 [4], over 100 µg/mL; against Strep.faecalis I, over 100 µg/mL; in experiment [5], 0.1 µg/mL; in experiment [6], 0.05 µg/mL; in the experiment on Sarcina lutea 8340 it was over 100 µg/mL. Besides, the MIC in experiment [7] is over 80 µg/mL; against B. subtilis ATCC 6633, over 80 µg/mL; against Strep.dysgalactiae SPD1 it was 1.25 µg/mL; in the experiment with Strep.agalactiae SPA1 it was 10 µg/mL; against Staph.aureus Oxford [8] it was 1.25 µg/mL; in the experiment with Past.multocida PA1, 0.625 µg/mL. The MIC in experiment [9] was 1.25 µg/mL; with E.coli E1, over 80 µg/mL; against E.coli NCTC 10418 [10], over 80 µg/mL; in the experiment on Past.multocida PA2 it was 0.625 µg/mL; in experiment [11] it was over 80 µg/mL; in experiment [12], 1.25 µg/mL. Moreover, the MIC against Bord.bronchiseptica BO9 is 80 µg/mL; with Past.haemolytica PA5, 10 µg/mL; with S.dublin S7, over 80 µg/mL; in [13], 20 µg/mL; against Strep.uberis SPU1, 0.312 µg/mL; against S.typhimurium S18, over 80 µg/mL. Besides, the MIC against Bord.bronchiseptica BO8 is 80 µg/mL; with Ps. aeruginosa 10662 it was over 100 µg/mL; in the experiment on Bacillus subtilis 6633, 0.1 µg/mL; in [14], 0.5 µg/mL; against Strep.pyogenes B 2788 it was 1 µg/mL; in experiment [15], over 100 µg/mL. Moreover, the MIC was over 100 µg/mL with P. mirabilis 889, 0.5 µg/mL in the experiment with Staph.aureus Russell, 2.5 µg/mL in the experiment with E.coli ESS and 0.5 µg/mL against Strep.pyogenes C 2761.

The values are drawn from patent US4374147A, “13-Oxo-monic acid esters useful as antibacterial and antimycoplasmal agents” (Beecham Group Limited, priority 1980, dated 1983).
